# US11882846B2, “Use of kefir peptide for improving or treating depressive behaviors and related diseases” (National Chung Hsing University, priority 2021, dated 2024)
# Counter-ions that a name gives are not always drawn.
# Key:
# CD-1 mice [1] = assay: Elevated plus maze test (EPMT); format: in vivo; settings: 7th day of rearing, 6 hours after oral treatment, 5 minutes observed; compared with first group (distilled water); 150 mg/kg milk powder or kefir fermentation product, 10 mg/kg trazodone hydrochloride
# Description: (§1) Take 5-week-old CD-1 mice, provide standard laboratory animal feed (Altromin, Germany) and distilled water (dH2O), and keep them for 12 hours at 22-24° C. for light/dark cycles. Before starting the test, each group of mice are raised in an experimental animal room for 1 week to adapt to the environment, and then the mice are randomly divided into 4 groups, and the mice in each of the groups are treated and raised for 8 days (referred to as the first day of rearing to the eighth day of rearing) according to the following conditions: • the first group: take distilled water orally; • the second group: take 150 mg/kg milk powder orally; • the third group: take 150 mg/kg kefir fermentation product orally; and • the fourth group: take 10 mg/kg drug trazodone hydrochloride orally.
# The mice in each of the groups of Example 1 are treated for 6 hours according to the above conditions on the 7th day of rearing, and then an elevated plus maze test is performed, and paths of the mice in each of the groups within 5 minutes are observed with a camera. The results are shown in FIGS. 2A to 2D, and the time of the mice in each of the groups spent on open arms or closed arms in the elevated plus maze is analyzed, and the results are shown in FIG. 2E to FIG. 2H.
# CD-1 mice [2] = assay: Open field test (OFT); format: in vivo; settings: 8th day of rearing, 30 minutes after oral treatment, 5 minutes in open field; compared with first group (distilled water)
# Description: as §1
# The mice in each of the groups in Example 2 are treated according to the above conditions for 30 minutes on the 8th day of rearing, and then an open field test is carried out. Specifically, the mice in each of the groups are first placed in an open field (45×45×40 cm) for 5 minutes, their travel paths and travel speeds are observed respectively, and the time it takes to reach the centers and the time spent at a fixed position are calculated.
# CD-1 mice [3] = assay: Forced swimming test (FST); format: in vivo; settings: 7th day of rearing, 30 minutes after oral treatment, testing time 6 minutes; kefir fermentation product 150 mg/kg, trazodone hydrochloride 10 mg/kg; average±standard deviation
# Description: as §1
# The mice in each of the groups of Example 2 are treated for 30 minutes according to the above conditions on the 7th day of rearing, and then a swimming test is carried out, testing time is 6 minutes. Movement and immobility time are measured and analyzed with a camera. The results are shown in FIG. 4, wherein the immobility time is a period of time without active movement but only floating in the water; the movement time is a period of time with active movement or circular movement.
# [4] = test system: BDNF (brain-derived neurotrophic factor); assay: BDNF mRNA expression in hippocampal tissues, quantitative RT-PCR; format: in vivo, mice; settings: oral treatment for 8 days; compared with first group (distilled water)
# Description: as §1
# (§2) After the test, the mice in each of the groups are anesthetized and their hippocampal tissues are isolated, and frozen and preserved for use in subsequent examples.
# (§3) Expressions of protein and mRNA in the hippocampal tissues of the mice in each of the groups in Example 2 are assessed by quantitative RT-PCR method and western blot analysis, and the results are shown in FIG. 6 and FIG. 7, respectively.
# TrkB = TrkB and p-TrkB protein in hippocampal tissues, western blot; format: in vivo, mice; settings: oral treatment for 8 days, compared with first group (distilled water)
# Description: as §1, §2, §3
# Erk1/2 = Erk1/2 and p-Erk1/2 protein in hippocampal tissues, western blot; format: in vivo, mice; settings: oral treatment for 8 days, compared with first group (distilled water)
# Description: as §1, §2, §3
# CD-1 mice [5] = assay: Tail suspension test (TST); format: in vivo; settings: 7th day, 30 minutes after oral treatment, 6 minute test, measured in the last 4 minutes; kefir fermentation product 150 mg/kg, peptides 10 mg/kg; average±standard deviation
# Description: Refer to the steps of Example 2, the CD-1 mice are randomly divided into five groups and raised under the following conditions: • the first group: take distilled water orally; • the second group: take 150 mg/kg kefir fermentation product orally; • the third group: take the peptide 1 (10 mg/kg) disclosed in Example 1 orally, and the amino acid sequence is SEQ ID No: 1; • the fourth group: take the peptide 2 (10 mg/kg) disclosed in Example 1 orally, and the amino acid sequence is SEQ ID No: 2; and • the fifth group 5: take the peptide 3 (10 mg/kg) disclosed in Example 1 orally, and the amino acid sequence is SEQ ID No: 3.
# When the mice in each of the groups are raised to the 7th day, after 30 minutes of treatment according to the following conditions, a tail suspension test is carried out for 6 minutes, and the immobility time is measured in the last 4 minutes. The results are shown in FIG. 5, wherein the immobility time refers to a period of time in which the mice are suspended and completely still.
Compound,paths of the mice in the elevated plus maze (movement to the open arms) (CD-1 mice [1]),movement distance in an open field (CD-1 mice [2]),movement speed in an open field (CD-1 mice [2]),time spent at a fixed position in an open field (CD-1 mice [2]),immobility time in swimming test (CD-1 mice [3]),movement time in swimming test (CD-1 mice [3]),expression of BDNF mRNA in hippocampal tissues [4],expression level of total TrkB protein in hippocampal tissues (TrkB),phosphorylation status p-TrkB/TrkB in hippocampal tissues (TrkB; P<0.05),expression level of total Erk1/2 protein in hippocampal tissues (Erk1/2),phosphorylation status p-Erk1/2/Erk1/2 in hippocampal tissues (Erk1/2; P<0.05),immobility time in tail suspension test (CD-1 mice [5]),movement time in tail suspension test (CD-1 mice [5])
O=c1n(CCCN2CCN(c3cccc(Cl)c3)CC2)nc2ccccn12 [trazodone hydrochloride],move to the open arms,move a longer distance,move faster,spend less time at a certain fixed position,0.9 ± 0.2 min,3.1 ± 0.3 min,significantly improved,have not change significantly,increases significantly,have not change significantly,increases significantly,–,–
"peptide 2: YQEPVLGPVRGPFPI, SEQ ID No: 2; the kefir peptide of the invention, isolated from kefir fermentation product (artificiall obtained)",–,–,–,–,–,–,–,–,–,–,–,1.0 ± 0.2 min,3.0 ± 0.2 min
"peptide 3: KLHLPLPLVQSWM, SEQ ID No: 3; peptide isolated from kefir fermentation product, can also be chemically synthesized (artificiall obtained)",–,–,–,–,–,–,–,–,–,–,–,1.8 ± 0.3 min,2.2 ± 0.3 min
